Measurements published in the supplement of paper PMC11451515.

Tested on: SEM cells
Assay: cell viability relative to DMSO control; higher = less cytotoxic
Conditions: 48 h
In short: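 NOMO1 or SEM cells were plated at 500 cells/well and P12-Ichikawa cells at 1000 cells/well in 1536-well plates (5 μl), after each leukemia line had been adapted for at least four passages in each medium. Pin dosing delivered library compounds in DMSO at 11 threefold concentrations, 47 μM to 0.79 nM. CellTiter-Glo One luminescence was read after 48 h at 37°C. Viability is reported as a per-plate percentage of DMSO wells, with cell-free wells as background.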

[1] = HPLM + 10% dialyzed FBS, 0.000781 µM
[2] = HPLM + 10% dialyzed FBS, 0.00234 µM
[3] = HPLM + 10% dialyzed FBS, 0.00702 µM
[4] = HPLM + 10% dialyzed FBS, 0.0211 µM
[5] = HPLM + 10% dialyzed FBS, 0.0632 µM
[6] = HPLM + 10% dialyzed FBS, 0.19 µM
[7] = HPLM + 10% dialyzed FBS, 0.569 µM
[8] = HPLM + 10% dialyzed FBS, 1.71 µM
[9] = HPLM + 10% dialyzed FBS, 5.12 µM
[10] = HPLM + 10% dialyzed FBS, 15.4 µM
[11] = HPLM + 10% dialyzed FBS, 46.1 µM
[12] = RPMI 5 mM glucose + 10% FBS, 0.000781 µM
[13] = RPMI 5 mM glucose + 10% FBS, 0.00234 µM
[14] = RPMI 5 mM glucose + 10% FBS, 0.00702 µM
[15] = RPMI 5 mM glucose + 10% FBS, 0.0211 µM
[16] = RPMI 5 mM glucose + 10% FBS, 0.0632 µM
[17] = RPMI 5 mM glucose + 10% FBS, 0.19 µM
[18] = RPMI 5 mM glucose + 10% FBS, 0.569 µM
[19] = RPMI 5 mM glucose + 10% FBS, 1.71 µM
[20] = RPMI 5 mM glucose + 10% FBS, 5.12 µM
[21] = RPMI 5 mM glucose + 10% FBS, 15.4 µM
[22] = RPMI 5 mM glucose + 10% FBS, 46.1 µM
[23] = RPMI 5 mM glucose + 10% dialyzed FBS, 0.000781 µM
[24] = RPMI 5 mM glucose + 10% dialyzed FBS, 0.00234 µM
[25] = RPMI 5 mM glucose + 10% dialyzed FBS, 0.00702 µM
[26] = RPMI 5 mM glucose + 10% dialyzed FBS, 0.0211 µM
[27] = RPMI 5 mM glucose + 10% dialyzed FBS, 0.0632 µM
[28] = RPMI 5 mM glucose + 10% dialyzed FBS, 0.19 µM
[29] = RPMI 5 mM glucose + 10% dialyzed FBS, 0.569 µM
[30] = RPMI 5 mM glucose + 10% dialyzed FBS, 1.71 µM
[31] = RPMI 5 mM glucose + 10% dialyzed FBS, 5.12 µM
[32] = RPMI 5 mM glucose + 10% dialyzed FBS, 15.4 µM
[33] = RPMI 5 mM glucose + 10% dialyzed FBS, 46.1 µM

SMILES | cell viability [1] | cell viability [2] | cell viability [3] | cell viability [4] | cell viability [5] | cell viability [6] | cell viability [7] | cell viability [8] | cell viability [9] | cell viability [10] | cell viability [11] | cell viability [12] | cell viability [13] | cell viability [14] | cell viability [15] | cell viability [16] | cell viability [17] | cell viability [18] | cell viability [19] | cell viability [20] | cell viability [21] | cell viability [22] | cell viability [23] | cell viability [24] | cell viability [25] | cell viability [26] | cell viability [27] | cell viability [28] | cell viability [29] | cell viability [30] | cell viability [31] | cell viability [32] | cell viability [33]
CC(C)OC(=O)/C1=C/N(CC(C)(C)C2=C1[NH]C3=CC=CC=C23)C(=O)C4=CC=C(F)C(=C4)F | 71.9% | 76% | 75.3% | 73.4% | 81% | 68.9% | 62% | 72.9% | 78.9% | 59.6% | 67.1% | 76.8% | 83.5% | 88.2% | 80.2% | 79.8% | 67.7% | 71.1% | 71.8% | 79.6% | 61.8% | 78.6% | 72.9% | 82% | 80% | 86% | 94.9% | 89% | 71.5% | 87.4% | 106% | 65.5% | 73.1%
C[S+](=O)([O-])Nc1ccc([N+](=O)[O-])cc1Oc1ccccc1 | 95.8% | 103% | 99.8% | 104% | 117% | 121% | 107% | 104% | 107% | 109% | 62.9% | 88.4% | 111% | 98.6% | 90.5% | 106% | 95.7% | 108% | 105% | 103% | 82.7% | 17.2% | 103% | 112% | 124% | 110% | 109% | 102% | 95.8% | 106% | 106% | 104% | 54.3%
NC1=C(Cl)C(=CC=N1)OC2=C(F)C=C(NC(=O)\C3=C\N\C=C(C3=O)\C4=CC=C(F)C=C4)C=C2 | 118% | 107% | 121% | 72.2% | 92.6% | 72.6% | 64.4% | 64% | 58.8% | 64.1% | 11.5% | 129% | 113% | 115% | 79.2% | 76% | 70.5% | 65.3% | 76.2% | 49% | 46.7% | 3.66% | 140% | 103% | 115% | 65.7% | 60% | 57.7% | 59.1% | 59.5% | 57.9% | 58.5% | 4.6%
CNCC(O)c1ccc(O)cc1 (stereo unspecified) | 59.8% | 87.8% | 85.6% | 80.2% | 90.1% | 95.6% | 87.9% | 86.8% | 95.3% | 99.5% | 93.6% | 96.6% | 95.4% | 128% | 103% | 112% | 105% | 113% | 104% | 122% | 114% | 111% | 75.6% | 97.3% | 85.7% | 93.5% | 101% | 108% | 100% | 99.4% | 114% | 99.8% | 87.1%
S=C(NCc1ccc2c(c1)OCO2)N1CCN(c2ncnc3c2oc2ccccc23)CC1 | 116% | 120% | 123% | 100% | 129% | 23.2% | 124% | 124% | 93.7% | 79.4% | 16.7% |  |  |  |  |  |  |  |  |  |  |  | 104% | 103% | 121% | 127% | 134% | 126% | 134% | 135% | 62.9% | 64.5% | 17.5%
c1ccc(CCCN2CCN(CCOC(c3ccccc3)c3ccccc3)CC2)cc1 | 27.6% | 98.3% | 99.1% | 103% | 97.9% | 104% | 87.4% | 99.9% | 87.1% | 33.9% | 44.6% | 69.2% | 106% | 104% | 98% | 91.7% | 85.9% | 102% | 89% | 91% | 19.2% | 61.8% | 78.9% | 103% | 114% | 100% | 99.4% | 96% | 73% | 96.5% | 92.5% | 23% | 50.5%
OC[C@@H](O)[C@@H](O)[C@H](O)[C@@H](O)CO | 68.4% | 85.4% | 88.2% | 105% | 98.4% | 101% | 13.8% | 60% | 103% | 97% | 105% | 102% | 105% | 103% | 99.5% | 113% | 111% | 11.4% | 110% | 112% | 116% | 108% | 104% | 97.4% | 119% | 97.3% | 108% | 124% | 12.5% | 118% | 133% | 120% | 113%
C[N]1C=C(C=N1)C2=C3\C=N/NC(=O)C4=C3C(=CC(=C4)NC(=O)[C@H](N)C5CCCCC5)[NH]2 | 87.7% | 56.3% | 85.5% | 101% | 79% | 90.8% | 68% | 58.3% | 36.5% | 20.7% | 11.6% | 101% | 67.1% | 94.4% | 99.2% | 92.9% | 103% | 81.3% | 50.8% | 34.5% | 22% | 8.73% | 79.8% | 50.8% | 95.1% | 86.2% | 89.5% | 90% | 59.3% | 42.2% | 25% | 15.4% | 7.21%
CC(C)OC(=O)C(C(=O)OC(C)C)=C1S\C=C/S1 | 112% | 119% | 128% | 125% | 120% | 123% | 117% | 123% | 118% | 70.1% | 113% | 114% | 135% | 122% | 125% | 122% | 133% | 141% | 131% | 116% | 50.9% | 109% |  |  |  |  |  |  |  |  |  |  | 
CC[C@]12CC[C@H]3[C@@H](CCC/4=C/C(=O)CC[C@H]34)[C@@H]1\C=C/[C@@]2(O)C#C | 78.9% | 96.1% | 106% | 102% | 111% | 108% | 115% | 109% | 127% | 110% | 121% | 110% | 107% | 119% | 123% | 131% | 117% | 106% | 124% | 116% | 125% | 116% | 113% | 110% | 108% | 115% | 116% | 120% | 109% | 118% | 115% | 118% | 118%
COc1ccc(-c2ccc3ncc4c(c3c2)n(-c2ccc(N3CCNCC3)c(C(F)(F)F)c2)c(=O)n4C)cn1 | 72.5% | 65.5% | 54.5% | 44.2% | 37.2% | 31.8% | 31.2% | 4.63% | 4.31% | 3.49% | 2.31% | 95.8% | 77.7% | 60.3% | 55.9% | 45.1% | 23.6% | 21.5% | 5.49% | 5.48% | 3.64% | 2.49% | 70% | 73.5% | 54.5% | 46.5% | 46% | 25.1% | 18.4% | 5.55% | 5.1% | 3.87% | 2.59%
COc1cc(OC2CCN(C)CC2)ccc1Nc1ncc2c(n1)n(C1CCCC1)c(=O)n2C | 63.8% | 87.5% | 78.2% | 69.4% | 77.3% | 99% | 97.3% | 64.7% | 59% | 25.6% | 2.44% | 87.4% | 80.4% | 79.3% | 81.1% | 99% | 90.1% | 83.2% | 67.4% | 76.1% | 20.7% | 2.73% | 74.2% | 88.5% | 71.9% | 75.4% | 78.3% | 96.1% | 84.4% | 55.4% | 67.7% | 26.6% | 2.25%
CCN1CCN(CC1)CC(=O)NC2=CC=C(C3=C2C4=C(S3)C=CC=C4)C5=C6O\C(=C/C(=O)C6=CC=C5)N7CCOCC7 | 107% | 98.2% | 109% | 106% | 111% | 93.4% | 88.4% | 30% | 18% | 8.23% | 30.3% | 117% | 108% | 107% | 95.2% | 124% | 91.7% | 82.3% | 55.6% | 14.4% | 8.04% | 27.8% | 137% | 122% | 123% | 116% | 105% | 110% | 88.6% | 71.3% | 24% | 9.66% | 27.2%
CCOC(=O)[C@@H](N)Cc1ccc(-c2cc(O[C@H](c3ccc(Cl)cc3-n3ccc(C)n3)C(F)(F)F)nc(N)n2)cc1.O=C(O)CNC(=O)c1ccccc1 | 100% | 129% | 93.3% | 133% | 127% | 107% | 126% | 125% | 115% | 110% | 45.1% | 96.4% | 112% | 82.2% | 110% | 114% | 103% | 98.6% | 113% | 97.1% | 115% | 17.1% | 106% | 132% | 111% | 118% | 102% | 119% | 120% | 111% | 109% | 117% | 24%
CNCCCC12CCC(c3ccccc31)c1ccccc12 | 96.5% | 108% | 105% | 99.7% | 116% | 114% | 110% | 105% | 93.5% | 89.6% | 59.5% | 87.3% | 97.3% | 98.2% | 99.4% | 76.6% | 104% | 106% | 100% | 90.5% | 85.2% | 63.8% | 113% | 125% | 105% | 110% | 111% | 115% | 128% | 107% | 106% | 118% | 75.5%
C[C@@]12C(=O)OC(=O)[C@@]1(C)C1CCC2O1 | 118% | 103% | 112% | 112% | 114% | 107% | 112% | 95.1% | 87.1% | 6.65% | 4.55% | 105% | 113% | 112% | 112% | 112% | 110% | 124% | 104% | 73.1% | 5.81% | 4.32% | 120% | 116% | 110% | 124% | 120% | 113% | 114% | 96.8% | 58.2% | 6.57% | 4.36%
